Each block holds one compound with its values, some of them ahead of it. Calls of active or inactive are those of the source. The calls are words filed in the database; no cut-off is given here.
Tests used:
Histamine H3 receptor [1] = target: T1, Histamine H3 receptor (Homo sapiens, UniProt Q9Y5N1); assay: Antagonist activity at human histamine H3 receptor expressed in CHOK1 cells assessed as inhibition of GTPgammaS binding; format: functional, cell-based, CHO-K1
Rattus norvegicus [2] = assay: Ex vivo binding affinity to histamine H3 receptor in po dosed rat cerebral cortex using [3H]-R-alpha-ethylhistamine after 2 hrs by HPLC analysis; format: functional
[3] = Time dependent inhibition of CYP450 (unknown origin); format: ADME, Homo sapiens
Histamine H1 receptor = Histamine H1 receptor (Homo sapiens, UniProt P35367); assay: Binding affinity to human histamine H1 receptor
Chain of Histamine H1 receptor (P35367 whole entry): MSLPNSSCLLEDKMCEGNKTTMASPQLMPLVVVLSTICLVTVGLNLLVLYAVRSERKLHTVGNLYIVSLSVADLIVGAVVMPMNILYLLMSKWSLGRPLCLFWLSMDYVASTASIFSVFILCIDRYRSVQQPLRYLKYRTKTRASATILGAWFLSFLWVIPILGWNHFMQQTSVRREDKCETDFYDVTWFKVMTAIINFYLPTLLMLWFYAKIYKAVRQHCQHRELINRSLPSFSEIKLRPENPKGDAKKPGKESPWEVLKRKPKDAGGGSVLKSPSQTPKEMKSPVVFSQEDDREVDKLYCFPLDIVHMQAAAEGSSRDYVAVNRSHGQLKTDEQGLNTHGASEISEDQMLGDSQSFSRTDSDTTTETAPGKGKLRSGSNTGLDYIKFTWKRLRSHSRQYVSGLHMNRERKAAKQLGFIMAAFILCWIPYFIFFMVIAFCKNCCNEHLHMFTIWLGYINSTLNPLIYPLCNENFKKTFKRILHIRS

Rattus norvegicus [4] = assay: Reversal of RAMH-induced dipsogenia in po dosed Lister Hooded rat treated 2 hrs before RAMH challenge measured after 1 hr; format: functional
[5] = Aqueous solubility of the compound; format: physicochemical
Histamine H2 receptor = Histamine H2 receptor (Homo sapiens, UniProt P25021); assay: Binding affinity to human histamine H2 receptor
Chain of Histamine H2 receptor (P25021 whole entry): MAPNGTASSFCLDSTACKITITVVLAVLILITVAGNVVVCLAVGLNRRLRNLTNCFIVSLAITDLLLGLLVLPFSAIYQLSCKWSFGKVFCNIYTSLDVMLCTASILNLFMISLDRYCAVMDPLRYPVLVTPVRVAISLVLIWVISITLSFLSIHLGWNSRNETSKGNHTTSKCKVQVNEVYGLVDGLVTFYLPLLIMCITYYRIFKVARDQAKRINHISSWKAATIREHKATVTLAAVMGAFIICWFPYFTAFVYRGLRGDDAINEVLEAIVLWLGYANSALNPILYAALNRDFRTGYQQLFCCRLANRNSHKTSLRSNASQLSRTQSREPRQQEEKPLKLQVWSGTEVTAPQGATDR

Blood = assay: Drug level in rat blood at 3 mg/kg, po; format: ADME, organism-based; set-up: dose 3 mg/kg, route oral; conditions: in vivo, read-out: Drug uptake
hERG (KCNH2) = hERG (KCNH2) (Homo sapiens, UniProt Q12809); assay: Inhibition of human ERG at 10 uM by patch clamp experiment
Chain of hERG (KCNH2) (Q12809 whole entry): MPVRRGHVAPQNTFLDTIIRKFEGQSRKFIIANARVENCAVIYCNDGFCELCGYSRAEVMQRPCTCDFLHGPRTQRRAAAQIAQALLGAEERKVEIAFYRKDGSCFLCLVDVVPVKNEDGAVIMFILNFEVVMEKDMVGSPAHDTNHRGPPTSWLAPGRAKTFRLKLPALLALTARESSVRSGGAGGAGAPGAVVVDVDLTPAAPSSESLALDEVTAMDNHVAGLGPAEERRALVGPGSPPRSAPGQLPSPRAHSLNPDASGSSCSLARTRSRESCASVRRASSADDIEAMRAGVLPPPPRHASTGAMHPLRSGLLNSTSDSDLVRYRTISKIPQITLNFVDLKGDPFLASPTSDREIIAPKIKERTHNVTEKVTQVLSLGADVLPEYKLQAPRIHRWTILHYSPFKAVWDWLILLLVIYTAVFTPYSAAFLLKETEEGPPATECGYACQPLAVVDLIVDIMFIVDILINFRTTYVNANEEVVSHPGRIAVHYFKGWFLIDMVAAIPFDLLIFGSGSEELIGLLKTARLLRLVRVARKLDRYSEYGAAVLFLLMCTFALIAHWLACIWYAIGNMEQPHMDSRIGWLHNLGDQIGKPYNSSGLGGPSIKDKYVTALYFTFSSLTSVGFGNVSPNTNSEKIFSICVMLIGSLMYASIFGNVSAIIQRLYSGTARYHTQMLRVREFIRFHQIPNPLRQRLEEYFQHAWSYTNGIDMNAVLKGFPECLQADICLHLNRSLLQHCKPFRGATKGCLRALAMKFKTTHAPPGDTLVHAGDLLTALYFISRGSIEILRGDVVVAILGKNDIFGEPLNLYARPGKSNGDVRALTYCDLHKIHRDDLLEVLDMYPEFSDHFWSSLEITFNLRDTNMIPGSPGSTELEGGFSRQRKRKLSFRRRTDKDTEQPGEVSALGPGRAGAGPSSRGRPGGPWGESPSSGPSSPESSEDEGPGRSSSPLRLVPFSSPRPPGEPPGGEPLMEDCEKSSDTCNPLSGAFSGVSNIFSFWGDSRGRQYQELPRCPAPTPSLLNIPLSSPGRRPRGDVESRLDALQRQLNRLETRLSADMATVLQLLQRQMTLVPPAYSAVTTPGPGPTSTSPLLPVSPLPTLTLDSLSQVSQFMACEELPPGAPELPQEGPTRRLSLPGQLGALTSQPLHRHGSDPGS

Liver microsome [6] = assay: Intrinsic clearance in human liver microsomes; format: ADME
Histamine H3 receptor [7] = target: T2, Histamine H3 receptor (Rattus norvegicus, UniProt Q9QYN8); assay: Displacement of [3H]-R-alpha-ethylhistamine from histamine H3 receptor in rat cerebral cortical tissue membranes after 45 mins by liquid scintillation spectrometry
T2 sequence (Q9QYN8 whole entry): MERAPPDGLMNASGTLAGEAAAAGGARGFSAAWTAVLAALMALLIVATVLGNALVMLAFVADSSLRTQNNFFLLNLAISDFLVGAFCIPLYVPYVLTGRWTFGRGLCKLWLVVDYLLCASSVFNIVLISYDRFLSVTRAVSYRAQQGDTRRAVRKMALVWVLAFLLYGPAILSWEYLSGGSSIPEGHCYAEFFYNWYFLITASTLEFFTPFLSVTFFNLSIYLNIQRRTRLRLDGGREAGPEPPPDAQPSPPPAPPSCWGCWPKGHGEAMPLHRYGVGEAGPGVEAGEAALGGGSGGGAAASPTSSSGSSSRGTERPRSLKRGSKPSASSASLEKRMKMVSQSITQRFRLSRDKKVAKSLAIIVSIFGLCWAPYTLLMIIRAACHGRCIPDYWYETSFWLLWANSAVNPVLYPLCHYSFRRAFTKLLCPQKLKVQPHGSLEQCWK

Histamine H3 receptor [8] = target: T2, Histamine H3 receptor; assay: Displacement of [3H]-R-alpha-ethylhistamine from rat histamine H3 receptor expressed in HEK293 cells after 45 mins by liquid scintillation spectrometry; format: cell-based
Liver microsome [9] = assay: Intrinsic clearance in rat liver microsomes; format: ADME
Rattus norvegicus [10] = assay: Ex vivo binding affinity to histamine H3 receptor in rat cerebral cortex using [3H]-R-alpha-ethylhistamine at 3 mg/kg, po after 3 hrs by HPLC analysis; format: functional
Rattus norvegicus [11] = assay: Reversal of RAMH-induced dipsogenia in Lister Hooded rat at 3 mg/kg, po treated 2 hrs before RAMH challenge measured after 1 hr; format: functional
[12] = Ratio of drug level in brain to blood in rat at 3 mg/kg, po after 1 hr; format: ADME, organism-based; set-up: dose 3 mg/kg, route oral
Histamine H4 receptor = Histamine H4 receptor (Homo sapiens, UniProt Q9H3N8); assay: Binding affinity to human histamine H4 receptor
Rattus norvegicus [13] = assay: Ex vivo binding affinity to histamine H3 receptor in rat cerebral cortex using [3H]-R-alpha-ethylhistamine at 0.3 mg/kg, po after 3 hrs by HPLC analysis; format: functional
[14] = Ratio of drug level in brain to blood in rat at 3 mg/kg, po; format: ADME, organism-based; set-up: dose 3 mg/kg, route oral
Rattus norvegicus [15] = assay: Cognitive enhancing effect against scopolamine-induced memory deficit in po dosed Wistar rat assessed as passive avoidance response after 24 hrs; format: functional, organism-based
Histamine H3 receptor [16] = target: T1, Histamine H3 receptor; assay: Displacement of [3H]-R-alpha-ethylhistamine from histamine H3 receptor in human cerebral cortical tissue membranes after 45 mins by liquid scintillation spectrometry
Rattus norvegicus [17] = assay: Cognitive enhancing effect in Lister Hooded rat assessed as increase of time spent exploring novel versus familiar objects in T2 at 0.3 to 1 mg/kg, po bid; format: functional, organism-based
[18] = Terminal half life in iv dosed Sprague-Dawley rat; format: ADME, organism-based; conditions: in vivo, read-out: beta t1/2 (converted)
[19] = Terminal half life in iv dosed cynomolgus monkey; format: ADME, organism-based, Macaca fascicularis; conditions: in vivo, read-out: beta t1/2 (converted)
[20] = Cmax in po dosed cynomolgus monkey; format: ADME, organism-based, Macaca fascicularis; set-up: route oral; conditions: in vivo
[21] = Tmax in po dosed Sprague-Dawley rat; format: ADME, organism-based; conditions: in vivo
[22] = Ratio of drug level in brain to blood in iv dosed Sprague-Dawley rat; format: ADME, organism-based
[23] = Cmax in po dosed Beagle dog; format: ADME, organism-based, Canis lupus familiaris; set-up: route oral; conditions: in vivo
[24] = Terminal half life in iv dosed Beagle dog; format: ADME, organism-based, Canis lupus familiaris; conditions: in vivo, read-out: beta t1/2 (converted)
[25] = Terminal half life in po dosed Sprague-Dawley rat; format: ADME, organism-based; conditions: in vivo, read-out: beta t1/2 (converted)
[26] = Tmax in po dosed cynomolgus monkey; format: ADME, organism-based, Macaca fascicularis; conditions: in vivo
[27] = Tmax in po dosed Beagle dog; format: ADME, organism-based, Canis lupus familiaris; conditions: in vivo
[28] = Total blood clearance in iv dosed Sprague-Dawley rat; format: ADME, organism-based; conditions: whole blood
[29] = Terminal half life in po dosed Beagle dog; format: ADME, organism-based, Canis lupus familiaris; conditions: in vivo, read-out: beta t1/2 (converted)
[30] = Cmax in iv dosed Beagle dog; format: ADME, organism-based, Canis lupus familiaris; set-up: route intravenous; conditions: in vivo
[31] = Volume of distribution at steady-state in iv dosed Sprague-Dawley rat; format: ADME, organism-based; conditions: in vivo, read-out: Vdss
[32] = Oral bioavailability in Beagle dog; format: ADME, organism-based, Canis lupus familiaris; conditions: in vivo
[33] = Ratio of drug level in brain to blood in human; format: ADME, tissue-based
[34] = Total blood clearance in iv dosed Beagle dog; format: ADME, organism-based, Canis lupus familiaris; conditions: whole blood
Rattus norvegicus [35] = assay: Cognitive enhancing effect against scopolamine-induced memory deficit in Wistar rat assessed as passive avoidance response at 3 mg/kg, po after 24 hrs; format: functional, organism-based; set-up: dose 3 mg/kg
[36] = Total blood clearance in iv dosed cynomolgus monkey; format: ADME, organism-based, Macaca fascicularis; conditions: whole blood
Rattus norvegicus [37] = species: Rattus norvegicus; assay: Ex vivo receptor occupancy of histamine H3 receptor in rat brain; format: functional, organism-based
Histamine H3 receptor [38] = target: T1, Histamine H3 receptor; assay: Displacement of [3H]-R-alpha-ethylhistamine from human histamine H3 receptor expressed in HEK293 cells after 45 mins by liquid scintillation spectrometry
[39] = Cmax in po dosed Sprague-Dawley rat; format: ADME, organism-based; set-up: route oral; conditions: in vivo
[40] = Cmax in iv dosed cynomolgus monkey; format: ADME, organism-based, Macaca fascicularis; set-up: route intravenous; conditions: in vivo
[41] = Terminal half life in po dosed cynomolgus monkey; format: ADME, organism-based, Macaca fascicularis; conditions: in vivo, read-out: beta t1/2 (converted)
[42] = Oral bioavailability in Sprague-Dawley rat; format: ADME, organism-based; conditions: in vivo
[43] = Volume of distribution at steady-state in iv dosed Beagle dog; format: ADME, organism-based, Canis lupus familiaris; conditions: in vivo, read-out: Vdss
[44] = Cmax in iv dosed Sprague-Dawley rat; format: ADME, organism-based; set-up: route intravenous; conditions: in vivo
[45] = Oral bioavailability in cynomolgus monkey; format: ADME, organism-based, Macaca fascicularis; conditions: in vivo
[46] = Volume of distribution at steady-state in iv dosed cynomolgus monkey; format: ADME, organism-based, Macaca fascicularis; conditions: in vivo, read-out: Vdss

T1 sequence (Q9Y5N1 whole entry): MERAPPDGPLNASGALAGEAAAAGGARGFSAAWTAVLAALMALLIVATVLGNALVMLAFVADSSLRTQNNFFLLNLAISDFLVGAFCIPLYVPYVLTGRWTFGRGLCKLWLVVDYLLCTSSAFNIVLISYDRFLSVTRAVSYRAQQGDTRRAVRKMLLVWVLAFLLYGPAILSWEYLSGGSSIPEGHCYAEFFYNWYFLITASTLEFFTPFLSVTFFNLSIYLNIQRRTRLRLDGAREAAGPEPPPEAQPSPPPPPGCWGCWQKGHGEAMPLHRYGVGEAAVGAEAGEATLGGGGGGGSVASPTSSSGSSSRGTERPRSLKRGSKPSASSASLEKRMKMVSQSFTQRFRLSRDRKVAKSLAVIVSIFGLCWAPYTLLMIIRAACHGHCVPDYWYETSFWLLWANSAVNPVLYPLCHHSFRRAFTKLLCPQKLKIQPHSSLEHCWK

Ki (Histamine H3 receptor [1]): 0.794 nM
Structure (SMILES): c1ccc(Oc2ccc3c(c2)CCN(C2CCC2)CC3)nc1

IC50 [3]: > 10 µM
Ki (Histamine H1 receptor): > 2510 nM
solubility [5]: > 10000 µg/mL
Ki (Histamine H2 receptor): > 3.16 µM
concentration (Blood): 880 nM
Ki (Histamine H3 receptor [1]): 0.2 nM
CLH (Liver microsome [6]): 0.5 mL/min/g
Ki (Histamine H3 receptor [7]): 2.63 nM
Ki (Histamine H3 receptor [8]): 0.676 nM
CLH (Liver microsome [9]): 0.5 mL/min/g
Kp at 1 h [12]: 1.3
Ki (Histamine H4 receptor): > 3.16 µM
Structure (SMILES): CNC(=O)c1ccc(Oc2ccc3c(c2)CCN(C2CCC2)CC3)nc1 [GSK189254]
ED50 (Rattus norvegicus [2]): 0.17 mg/kg
ED50 (Rattus norvegicus [4]): 0.05 mg/kg
inhibition at 10 µM (hERG (KCNH2)): 36%
Activity (Rattus norvegicus [10]): 100%
Activity (Rattus norvegicus [11]): 100%

Ki (Histamine H3 receptor [1]): 0.316 nM
Ki (Histamine H3 receptor [7]): 2.51 nM
Structure (SMILES): CC1CCC(=O)N1c1ccc(Oc2ccc3c(c2)CCN(C2CCC2)CC3)nc1 (configuration not stated)
Activity (Rattus norvegicus [10]): 52%

Ki (Histamine H3 receptor [1]): 2.51 nM
Structure (SMILES): c1cnc(Oc2ccc3c(c2)CCN(C2CCC2)CC3)nc1

Ki (Histamine H3 receptor [1]): 0.158 nM
Ki (Histamine H3 receptor [7]): 0.794 nM
Structure (SMILES): O=C1OCCN1c1ccc(Oc2ccc3c(c2)CCN(C2CCC2)CC3)nc1
Activity (Rattus norvegicus [13]): 44%

Ki (Histamine H3 receptor [1]): 0.2 nM
Ki (Histamine H3 receptor [7]): 1.58 nM
Structure (SMILES): O=C1C[C@@H](O)CN1c1ccc(Oc2ccc3c(c2)CCN(C2CCC2)CC3)nc1
Activity (Rattus norvegicus [10]): 56%

concentration (Blood): 1200 nM
Ki (Histamine H3 receptor [1]): 0.2 nM
Ki (Histamine H3 receptor [7]): 1 nM
Kp [14]: 0.8
Structure (SMILES): CC(=O)Nc1ccc(Oc2ccc3c(c2)CCN(C2CCC2)CC3)nc1
ED50 (Rattus norvegicus [2]): 0.32 mg/kg
Activity (Rattus norvegicus [10]): 89%

Ki (Histamine H3 receptor [1]): 0.1 nM
Ki (Histamine H3 receptor [7]): 1 nM
Structure (SMILES): CN1CCN(c2ccc(Oc3ccc4c(c3)CCN(C3CCC3)CC4)nc2)C1=O
ED50 (Rattus norvegicus [2]): 1.9 mg/kg
Activity (Rattus norvegicus [10]): 81%

concentration (Blood): 700 nM
Ki (Histamine H3 receptor [1]): 1.26 nM
Ki (Histamine H3 receptor [7]): 7.94 nM
Kp [14]: 2.8
Structure (SMILES): CNC(=O)c1ccc(Oc2ccc3c(c2)CCN(C2CCC2)CC3)nn1
ED50 (Rattus norvegicus [2]): 0.85 mg/kg
ED50 (Rattus norvegicus [4]): 0.33 mg/kg
Activity (Rattus norvegicus [10]): 79%

Ki (Histamine H3 receptor [1]): 0.501 nM
Ki (Histamine H3 receptor [7]): 3.16 nM
Structure (SMILES): c1cnn(-c2ccc(Oc3ccc4c(c3)CCN(C3CCC3)CC4)nc2)c1
Activity (Rattus norvegicus [10]): 73%

Ki (Histamine H3 receptor [1]): 0.631 nM
Ki (Histamine H3 receptor [7]): 3.98 nM
Structure (SMILES): CCNC(=O)c1ccc(Oc2ccc3c(c2)CCN(C2CCC2)CC3)cn1
Activity (Rattus norvegicus [10]): 62%

Ki (Histamine H3 receptor [1]): 3.16 nM
Structure (SMILES): c1ccc(Oc2ccc3c(c2)CCN(C2CCC2)CC3)cc1

Ki (Histamine H3 receptor [1]): 1.58 nM
Structure (SMILES): c1cnc(Oc2ccc3c(c2)CCN(C2CCC2)CC3)cn1

IC50 [3]: > 10 µM
Ki (Histamine H1 receptor): 1580 nM
Ki (Histamine H2 receptor): > 3.16 µM
concentration (Blood): 1120 nM
CLH (Liver microsome [6]): 1.2 mL/min/g
Ki (Histamine H3 receptor [7]): 0.832 nM
Ki (Histamine H3 receptor [8]): 1.12 nM
CLH (Liver microsome [9]): 1.4 mL/min/g
Ki (Histamine H4 receptor): > 3.16 µM
Structure (SMILES): CNC(=O)c1cnc(Oc2ccc3c(c2)CCN(C2CCC2)CC3)cn1
ED50 (Rattus norvegicus [2]): 0.04 mg/kg
ED50 (Rattus norvegicus [4]): 0.02 mg/kg
inhibition at 10 µM (hERG (KCNH2)): < 10%
Activity (Rattus norvegicus [10]): 82%

Ki (Histamine H3 receptor [1]): 0.0794 nM
Ki (Histamine H3 receptor [7]): 0.2 nM
Structure (SMILES): O=C1CCN1c1ccc(Oc2ccc3c(c2)CCN(C2CCC2)CC3)nc1
Activity (Rattus norvegicus [13]): 21%

Ki (Histamine H3 receptor [16]): 0.12 nM
IC50 [3]: > 10 µM
half-life [18]: 72 min
Ki (Histamine H1 receptor): 2510 nM
half-life [19]: 102 min
solubility [5]: > 10000 µg/mL
Cmax [20]: 145 nM
Ki (Histamine H2 receptor): > 3.16 µM
Tmax [21]: 1 h
concentration (Blood): 410 nM
Kp [22]: 1.83
Cmax [23]: 120 nM
half-life [24]: 102 min
half-life [25]: 126 min
Tmax [26]: 1.3 h
Tmax [27]: 42 min
clearance [28]: 39 mL/min/kg
Ki (Histamine H3 receptor [1]): 0.1 nM
half-life [29]: 108 min
Cmax [30]: 393 nM
CLH (Liver microsome [6]): 0.6 mL/min/g
Ki (Histamine H3 receptor [7]): 0.363 nM
Ki (Histamine H3 receptor [8]): 0.148 nM
CLH (Liver microsome [9]): 1.6 mL/min/g
Vd [31]: 3.1 L/kg
bioavailability [32]: 33%
Kp [33]: 1.83
clearance [34]: 22 mL/min/kg
clearance [36]: 28 mL/min/kg
EC50 (Rattus norvegicus [37]): 15 nM
Ki (Histamine H3 receptor [38]): 0.204 nM
Cmax [39]: 348 nM
Cmax [40]: 383 nM
half-life [41]: 102 min
bioavailability [42]: 51%
Vd [43]: 2.8 L/kg
Kp [14]: 1
Ki (Histamine H4 receptor): > 3.16 µM
Cmax [44]: 671 nM
bioavailability [45]: 55%
Vd [46]: 3.2 L/kg
Structure (SMILES): O=C1CCCN1c1ccc(Oc2ccc3c(c2)CCN(C2CCC2)CC3)nc1 [GSK239512]
ED50 (Rattus norvegicus [2]): 0.08 mg/kg
Activity (Rattus norvegicus [15]): Dose-dependent effect
Activity (Rattus norvegicus [17]): Active
ED50 (Rattus norvegicus [4]): 0.04 mg/kg
inhibition at 10 µM (hERG (KCNH2)): < 10%
Activity (Rattus norvegicus [35]): Active
Activity (Rattus norvegicus [10]): 95%
